Test results from a melting point compilation (Tetko et al.; mined from patent text by program, amines drawn as free bases though some values may be those of a salt).

Row | Compound | melting point [°C]
1 | CCn1ncc2c(-c3cncc(C)c3)c(CCC(=O)O)c(-c3ocnc3C)nc21 | 184 to 186
2 | C=CCCCCC1CCC(CC)(CC(=O)O)c2[nH]c3c(C)cccc3c21 (configuration not stated) | 111 to 112
3 | CCCCCCCC(=O)N(C)Cc1ccc(OCc2ccccc2)c(-c2ccc(C=C3SC(=O)NC3=O)cc2)c1 | 93
4 | COc1ccc(C(=O)Nc2ccccc2)cc1NCc1ccc(-c2ccccc2)cc1 | 222 to 223
5 | COc1cccc(OC)c1-c1ccc(C[C@H](NC(=O)c2c(Cl)cccc2Cl)C(=O)O)cc1NC(C)=O | 142 to 144
6 | CC(C)(C)c1cc(C=Cc2cc(C=Cc3cc(C(C)(C)C)cc(C(C)(C)C)c3)cc(CBr)c2)cc(C(C)(C)C)c1 | 222 to 223
7 | Brc1ccc(Cc2cc(Br)c(Cc3ccc(Br)cc3)cc2Br)cc1 | 161 to 167
8 | O=C(CCc1cnn2c(=O)[nH]cnc12)NCCCN1CCCC1=O | 180 to 181
9 | CC(C)(C)c1cc(OCc2ccc(-c3nnn[nH]3)cc2)cc(C(C)(C)C)c1 | 253 to 255
10 | O=c1c2cc(C=NO)ccc2oc2ncccc12 | 254 to 256
11 | COc1cc2nc(N)nc(-c3cc(I)c(O)c(I)c3)c2cc1OC | 259 to 260
12 | COc1ccc(C(=O)c2c(N)sc3c2CCN(C(=O)c2ccccc2)C3)cc1OC | 143 to 145
13 | CC(C)(C)c1ccc([C@@H]2C[C@H]3C=C(c4c[nH]c(-c5ccc(F)c(F)c5)c4-c4ccncc4)CCN3C2)cc1 | 218 to 220
14 | CC(C)(C#N)c1ccc(C(=O)Nc2cn3cc(-n4ccnc4)ccc3n2)cc1 | 241 to 244
15 | O=C(CSCCCCOc1ccccc1)NNC(=O)c1ccc(O)cc1 | 113 to 115
16 | CC1(C)OCC(C(O)CNC(=O)c2cc(C(=O)NCC(O)C3COC(C)(C)O3)cc(S(=O)(=O)Nc3ccc(F)c(C(F)(F)F)c3)c2)O1 (configuration not stated) | 217 to 218
17 | CC(C)n1nc(-c2sc(NC(=O)CNCc3ccccc3)nc2-c2ccccc2)ccc1=O | 144 to 145
18 | COc1cc(Cl)nc(NC(=O)NS(=O)(=O)C(C)S(=O)(=O)N2CCCC2)n1 (configuration not stated) | 158 to 160
19 | O=C1c2cc([N+](=O)[O-])cc3c(N4CCCC4)c(Cl)cc(c23)C(=O)N1O | 209 to 210
20 | CS(=O)(=O)c1cccc(CNC(=O)c2nc3scc(COCc4ccc(C(=O)O)cc4)c3c(=O)[nH]2)c1 | 265 to 267
21 | CC(C)OC(=O)c1cc(-n2c(=O)[nH]c3c(c2=O)CSC3)c(F)cc1Cl | 180 to 183
22 | CC(=O)OC1CCC2(C)C(=CCC3C2CCC2(C)C3CC(OC(C)=O)C2OC(C)=O)C1 (configuration not stated) | 127 to 129
23 | CCOC(=O)Cn1[nH]c(C)c(Cc2cc(Cl)cc(Cl)c2)c1=O | 183 to 184
24 | COc1ccccc1N1CCc2c(C)nc3c(OC)cccc3c21 | 168 to 169
25 | CCCc1cnc(NC(=O)C2c3ccccc3Oc3ccccc32)o1 | 203 to 205

Row | Compound | melting point [°C]
26 | Cc1ccc2c(c1)/C(=N\NC(=O)NCc1ccccc1)C(=O)N2CCN(C(C)C)C(C)C | 159 to 160
27 | Cc1c(C)n(CCF)c2c(OCc3ccccc3)nncc12 | 106 to 107
28 | CCCOc1ccc(CC(C)=O)cc1S(N)(=O)=O | 106 to 107
29 | Ic1c[nH]c2nccc(OC3CCCCC3)c12 | 199 to 201
30 | O=C1Cc2cc3ccccc3nc2N1 | 261
31 | COc1ccccc1N1CCN(CCNC(=O)CCN2CC=C(c3c[nH]c4cc(F)ccc34)CC2)CC1 | 175 to 177
32 | CCCCNC(=O)Nc1ncc(-c2ccncc2)cn1 | 204 to 206
33 | O=C(Nc1cc(Cl)cc(Cl)c1)c1cnc(Nc2ccccc2)nc1C(F)(F)F | 228 to 229
34 | CCCCCCCCCCCCCCCCCCOC(=O)Nc1ccc(NC(=O)NS(=O)(=O)c2ccc3ccccc3c2)cc1 | 178
35 | COc1ccc(-n2nc3c(cc2=O)CCCc2sc(CO)cc2-3)cc1 | 130 to 131
36 | OCCCCCCCCCCCCCCCCNCCO | 80 to 81.2
37 | Cc1ncnc(-c2ccc(Cl)cc2F)c1Cl | 77 to 79
38 | CCOCCn1c(C)c(C2(c3ccc(N(C)C)cc3C)OC(=O)c3ccccc32)c2ccccc21 (configuration not stated) | 170 to 171
39 | Nc1ncc2c(n1)-c1sc(N)nc1CC2 | 293 to 300
40 | CCCC12COC(c3ccc(I)cc3)(OC1)SC2 | 128 to 132
41 | Cc1cc2c(cc1Sc1ccc(C(=O)Nc3ccc(O)cc3)cc1)C(C)(C)CCC2(C)C | 236 to 237
42 | Cn1ccc2cc(NC(=O)Nc3cccc4cccnc34)ccc21 | 205 to 209
43 | C1COC2(OC1)OCCCO2 | 137 to 140
44 | O=S(=O)(c1nc(-c2ccc(F)cc2)c(-c2cccs2)[nH]1)C(F)(F)C(F)F | 192 to 193
45 | CCOC(=O)c1ccc(-c2ccc3c(c2)C(Nc2ccc(Cl)cc2)CC(C)N3C(C)=O)cc1 (configuration not stated) | 114
46 | C=C(C)CNC(=NC#N)Nc1cccnc1 | 140 to 141
47 | O=C(O)Cc1cc(=O)n(Cc2ccc(Cl)cc2)c2ccccc12 | 208 to 209
48 | CN(C)c1ccc(C=CC(=O)c2ccc(OCCO)cc2)cc1 | 127 to 128
49 | COCc1nccn1CC(=O)c1ccc(-c2ccc(N3C[C@H](Cn4ccnn4)OC3=O)cc2F)cn1 | 78 to 80
50 | COc1ccc(-c2cc(=O)n(Cc3ccc(OC)c(F)c3)nc2-c2ccc(OC)cc2)cc1 | 166 to 168

Row | Compound | melting point [°C]
51 | O=C(O)C(=O)c1ccc(S(=O)(=O)CCOc2ccc3ccccc3c2)cc1 | 135 to 136
52 | Cc1c(NC(=O)OCc2ccccc2)cccc1C(C[N+](=O)[O-])c1c[nH]c2cc(N3CCOCC3)ccc12 (configuration not stated) | 137
53 | Clc1ccc2c(c1Cl)C=NCC2 | 196 to 200
54 | CC1(C)COC(=O)N1c1nc(-c2sc(C#N)cc2Br)cs1 | 230 to 234
55 | O=C(N/C(=C\c1c[nH]c2ccccc12)C(=O)NCCc1ccccn1)OC1C2CC3CC(C2)CC1C3 (configuration not stated) | 188 to 200
56 | COC(=O)c1cc(-c2ccc(Cl)cc2)n(-c2ccc(S(N)(=O)=O)cc2)n1 | 186
57 | O=C(O)[C@H]1CN(C(=O)OCc2ccccc2)CCN1c1cc(Cl)ccc1[N+](=O)[O-] | 145 to 155
58 | O=C(O)COc1cccc2c1CCc1sc(SC(c3cccc(F)c3)c3cccc(F)c3)nc1-2 | 155 to 158
59 | Cc1cn(C(C(=O)N(C)C)C2CCCCC2)nc1-c1ccccc1 (configuration not stated) | 102 to 104
60 | CC1SC(=O)C=NC1=O (configuration not stated) | 81 to 83
61 | COC(=O)C1Sc2cc(Cl)ccc2OCC1=O (configuration not stated) | 92 to 94
62 | COc1ccc(CSc2nc(-c3ccccc3)n(Cc3cc4c(cc3Cl)OCO4)c2C=O)cc1 | 120
63 | CCOC(=O)c1ccc(OCCCCCCc2cccc(O)c2O)cc1O | 63 to 68
64 | CCOC(=O)C1=C(C)NC(C)=C(C(=O)OCC)C1c1csc2cc([N+](=O)[O-])ccc12 | 191 to 194
65 | CCC(=O)N1CCC(=NO)c2cc(F)ccc21 | 126 to 128
66 | Cn1c(SCC(=O)NCCC[N+](C)([O-])Cc2ccc(Cl)c(Cl)c2)nc2ccccc21 (configuration not stated) | 106 to 110
67 | Cc1cccc(C(=O)Cc2ccnc(-c3ccc(OCC(N)=O)cc3)c2)n1 | 144 to 146
68 | COC(=O)c1cc(I)c(OC)c2c1OCO2 | 162 to 164
69 | CCCNC(=O)C(C)=Cc1ccc2[nH]ccc2c1 | 92 to 94
70 | COC(=O)c1cc2c3ccccc3n(S(=O)(=O)c3ccccc3)c2s1 | 195 to 197
71 | Cc1cn(Nc2ccncc2)c2ccc(OCc3ccccc3)cc12 | 168 to 170
72 | O=c1oc(Cc2ccc(Oc3ccccc3)cc2)nn1-c1ccccc1Cl | 85
73 | COC(=O)N1CC[C@H](Nc2nc3cncnc3n2Cc2ccc(F)cc2)[C@H](C)C1 (relative stereo) | 152
74 | OCC(CO)Cc1ccccc1 | 64 to 65
75 | O=C1C(=Cc2cccnc2)N2CCC1CC2 | 113

Row | Compound | melting point [°C]
76 | O=C(/C=C/c1ccccc1)NC1CCN(CCC2CCOc3ccccc32)CC1 (configuration not stated) | 168 to 170
77 | CC1=Cc2ccsc2Sc2ccccc21 | 70 to 71
78 | CCC[C@H]1C(=O)N(S(=O)(=O)c2ccc3ccccc3c2)[C@H]2CCN(S(C)(=O)=O)[C@H]12 (relative stereo) | 257 to 260
79 | CC(=O)OC1CCC2(C)C(CCC3C4CCC(C(C)=O)C4(C)CC(=O)C32)C1 (configuration not stated) | 130 to 133
80 | COc1ccc(NS(C)(=O)=O)cc1CN1CCC(=O)C(C(c2ccccc2)c2ccccc2)C1 (configuration not stated) | 132 to 135
81 | CCOC(=O)C(C(=O)OC(c1ccccc1)c1ccccc1)C(=O)c1cc(F)c(OC)nc1Nc1ccc(F)cc1F (configuration not stated) | 130 to 131
82 | CCc1ccc(NCc2ccc(N(C)C)cc2)cc1 | 64 to 66
83 | COc1ccc2[nH]c(SCc3ncnc(N4CCCC4)c3C)nc2c1 | 104 to 106
84 | CON=C(C)C(C)=NOc1ccccc1C(=NOC)C(=O)OC | 93 to 94
85 | CN1CC(CCN2CCC(c3c[nH]c4ccccc34)CC2)C=C2c3cccc4[nH]cc(c34)CC21 (configuration not stated) | 184 to 187
86 | CCC(CC)c1ccc(Cl)c2nc3n(c12)CCCCN3c1ccc(C(=O)N(C)C)cc1C | 113 to 114
87 | Cc1cc2c(CN3CCC(C)CC3)c(CO)c(Cl)nc2cc1Cl | 170 to 172
88 | CC1(C)COc2ccc(C[C@@H](NC(=O)c3ccc(F)c4ccccc34)[C@@H](O)c3cccc(Cl)c3)cc21 (racemic) | 131 to 133
89 | O=C(Cn1cccc(NC(=O)OCc2ccccc2)c1=O)NC(Cc1ccccc1)C(=O)C(F)(F)F (configuration not stated) | 113 to 117
90 | O=C(O)CNS(=O)(=O)c1ccc(N2CCN(c3ccccc3)CC2)cc1 | 120 to 124
91 | CC(=O)NC[C@H]1CN(c2ccc(C3=CCN(C=O)CC3)cc2)C(=O)O1 | 149 to 152
92 | Cc1ccc(C(=O)Nc2ccc(CN3CCCC3)c(C(F)(F)F)c2)cc1Br | 168 to 170
93 | CNC(=O)N1CCc2nc(N)sc2C1 | 202
94 | CCc1nn(CCC(N)=O)c(CC)c1Cc1cc(Cl)cc(Cl)c1 | 140 to 142
95 | O=c1[nH]c2ccccc2c2cc(C(O)c3ccccc3)nn12 (configuration not stated) | 231 to 233
96 | NC(=O)c1ccc(OCCNCC(O)c2ccccc2)cc1O (configuration not stated) | 141 to 142
97 | CC=CC(=O)Nc1n[nH]c2ccc(C(F)(F)F)cc12 | 242
